Measurements published in patent US9233905B2, “Oxidation and crystallization process for aromatic carboxylic acid production” (UOP LLC, priority 2012, dated 2016).

Assay: solubility study in acetic acid and ionic liquid solvent
Type: physicochemical
Conditions: ionic liquid solvent compared with acetic acid; FIG. 4
From the text: Two samplers were used for different purposes. A custom Titanium sampler was fabricated by Parr Instrument with a 2 μm Titanium filter included to separate solid and liquid phase at operating temperature for studying reaction kinetics. A custom Titanium sampler, larger in size but with no filter attached, was used for a solubility study. For the solubility study, the solvent and solute were loaded in the reactor and heated to the desired temperature, and maintained for a certain time to ensure an equilibrium was established. Afterwards, sufficient time was allowed for the solid to settle before a sample was taken. Solubility was compared to another study that tested terephthalic acid solubility in acetic acid.

| Structure (SMILES) | solubility |
| --- | --- |
| O=C(O)c1ccc(C(=O)O)cc1 [terephthalic acid, 1,4-benzenedicarboxylic acid] | greater solubility in ionic liquid than in acetic acid |
| O=Cc1ccc(C(=O)O)cc1 [4-CBA, 4-carboxybenzaldehyde] | greater solubility in ionic liquid than in acetic acid |
